Columns and labels:
Test in all cases: relative viability (nuclei count vs DMSO), 5 days (fraction); higher = more cells survive
[1] = compound: CC1=CC(=NN1)NC2=CC(=NC(=N2)/C=C/C3=CC=CC=C3)N4CCN(CC4)C + Nc1nc2[nH]cc(CCc3ccc(C(=O)N[C@@H](CCC(=O)O)C(=O)O)cc3)c2c(=O)[nH]1 [Pemetrexed] (partner 0.2 µM)
Procedure, shortened: (§1)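 Medians of duplicate plates are given as relative viability. That measure is the nuclei count in treated wells divided by the count in vehicle wells. Counts were taken on 4× images of lung cancer cell lines in 1536-well plates, 5 days after pin-tool dosing the day after seeding with one drug alone or a fixed anchor-drug dose plus five library-drug doses (not always all listed) in √10 steps.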

[2] = compound: CC1=CC(=NN1)NC2=CC(=NC(=N2)/C=C/C3=CC=CC=C3)N4CCN(CC4)C + Cc1cc(Nc2cc(N3CCN(C)CC3)nc(Sc3ccc(NC(=O)C4CC4)cc3)n2)n[nH]1 [Tozasertib] (partner 0.1 µM)
Procedure, shortened: as §1

Bortezomib + Pemetrexed = compound: CC(C)C[C@H](NC(=O)[C@H](Cc1ccccc1)NC(=O)c1cnccn1)B(O)O [Bortezomib] + Nc1nc2[nH]cc(CCc3ccc(C(=O)N[C@@H](CCC(=O)O)C(=O)O)cc3)c2c(=O)[nH]1 [Pemetrexed] (partner 0.2 µM)
Procedure, shortened: as §1

Obatoclax + Dasatinib = compound: COC1=CC(c2cc3ccccc3[nH]2)=N/C1=C\c1[nH]c(C)cc1C [Obatoclax] + Cc1nc(Nc2ncc(C(=O)Nc3c(C)cccc3Cl)s2)cc(N2CCN(CCO)CC2)n1 [Dasatinib] (partner 0.075 µM)
Procedure, shortened: as §1

## NCI-H3122
[1]; first compound 0.08 µM
  relative viability: 0.2
[1]; first compound 0.253 µM
  relative viability: 0.203
[1]; first compound 0.8 µM
  relative viability: 0.206
[1]; first compound 2.53 µM
  relative viability: 0.186
[1]; first compound 8 µM
  relative viability: 0.147
[2]; first compound 0.08 µM
  relative viability: 0.373
[2]; first compound 0.253 µM
  relative viability: 0.408
[2]; first compound 0.8 µM
  relative viability: 0.408
[2]; first compound 2.53 µM
  relative viability: 0.33
[2]; first compound 8 µM
  relative viability: 0.231
Bortezomib + Pemetrexed; first compound 0.0002 µM
  relative viability: 0.2
Bortezomib + Pemetrexed; first compound 0.000632 µM
  relative viability: 0.202
Bortezomib + Pemetrexed; first compound 0.002 µM
  relative viability: 0.195
Bortezomib + Pemetrexed; first compound 0.006325 µM
  relative viability: 0.171
Bortezomib + Pemetrexed; first compound 0.02 µM
  relative viability: 0.117
Obatoclax + Dasatinib; first compound 0.01 µM
  relative viability: 0.925
Obatoclax + Dasatinib; first compound 0.03162 µM
  relative viability: 0.843
Obatoclax + Dasatinib; first compound 0.1 µM
  relative viability: 0.798
Obatoclax + Dasatinib; first compound 0.3162 µM
  relative viability: 0.674
Obatoclax + Dasatinib; first compound 1 µM
  relative viability: 0.766

## PC-3 [JPC-3]
[1]; first compound 0.08 µM
  relative viability: 1.15
[1]; first compound 0.253 µM
  relative viability: 1.2
[1]; first compound 0.8 µM
  relative viability: 1.03
[1]; first compound 2.53 µM
  relative viability: 0.849
[1]; first compound 8 µM
  relative viability: 0.361
[2]; first compound 0.08 µM
  relative viability: 0.886
[2]; first compound 0.253 µM
  relative viability: 0.899
[2]; first compound 0.8 µM
  relative viability: 0.839
[2]; first compound 2.53 µM
  relative viability: 0.74
[2]; first compound 8 µM
  relative viability: 0.461
Bortezomib + Pemetrexed; first compound 0.0002 µM
  relative viability: 1.02
Bortezomib + Pemetrexed; first compound 0.000632 µM
  relative viability: 1.14
Bortezomib + Pemetrexed; first compound 0.002 µM
  relative viability: 0.727
Bortezomib + Pemetrexed; first compound 0.006325 µM
  relative viability: 0.196
Bortezomib + Pemetrexed; first compound 0.02 µM
  relative viability: 0.184
Obatoclax + Dasatinib; first compound 0.01 µM
  relative viability: 0.963
Obatoclax + Dasatinib; first compound 0.03162 µM
  relative viability: 1.02
Obatoclax + Dasatinib; first compound 0.1 µM
  relative viability: 1.01
Obatoclax + Dasatinib; first compound 0.3162 µM
  relative viability: 1.01
Obatoclax + Dasatinib; first compound 1 µM
  relative viability: 0.943

## PC-14
[1]; first compound 0.08 µM
  relative viability: 0.14
[1]; first compound 0.253 µM
  relative viability: 0.134
[1]; first compound 0.8 µM
  relative viability: 0.15
[1]; first compound 2.53 µM
  relative viability: 0.0655
[1]; first compound 8 µM
  relative viability: 0.0336
[2]; first compound 0.08 µM
  relative viability: 0.634
[2]; first compound 0.253 µM
  relative viability: 0.619
[2]; first compound 0.8 µM
  relative viability: 0.55
[2]; first compound 2.53 µM
  relative viability: 0.359
[2]; first compound 8 µM
  relative viability: 0.0595
Bortezomib + Pemetrexed; first compound 0.0002 µM
  relative viability: 0.126
Bortezomib + Pemetrexed; first compound 0.000632 µM
  relative viability: 0.142
Bortezomib + Pemetrexed; first compound 0.002 µM
  relative viability: 0.166
Bortezomib + Pemetrexed; first compound 0.006325 µM
  relative viability: 0.0636
Bortezomib + Pemetrexed; first compound 0.02 µM
  relative viability: 0.078
Obatoclax + Dasatinib; first compound 0.01 µM
  relative viability: 0.285
Obatoclax + Dasatinib; first compound 0.03162 µM
  relative viability: 0.286
Obatoclax + Dasatinib; first compound 0.1 µM
  relative viability: 0.225
Obatoclax + Dasatinib; first compound 0.3162 µM
  relative viability: 0.0723
Obatoclax + Dasatinib; first compound 1 µM
  relative viability: 0.0415

## RERF-LC-KJ
[1]; first compound 0.08 µM
  relative viability: 0.439
[1]; first compound 0.253 µM
  relative viability: 0.484
[1]; first compound 0.8 µM
  relative viability: 0.484
[1]; first compound 2.53 µM
  relative viability: 0.397
[1]; first compound 8 µM
  relative viability: 0.224
[2]; first compound 0.08 µM
  relative viability: 0.545
[2]; first compound 0.253 µM
  relative viability: 0.437
[2]; first compound 0.8 µM
  relative viability: 0.306
[2]; first compound 2.53 µM
  relative viability: 0.197
[2]; first compound 8 µM
  relative viability: 0.2
Bortezomib + Pemetrexed; first compound 0.0002 µM
  relative viability: 0.673
Bortezomib + Pemetrexed; first compound 0.000632 µM
  relative viability: 0.459
Bortezomib + Pemetrexed; first compound 0.002 µM
  relative viability: 0.464
Bortezomib + Pemetrexed; first compound 0.006325 µM
  relative viability: 0.347
Bortezomib + Pemetrexed; first compound 0.02 µM
  relative viability: 0.358
Obatoclax + Dasatinib; first compound 0.01 µM
  relative viability: 0.796
Obatoclax + Dasatinib; first compound 0.03162 µM
  relative viability: 0.894
Obatoclax + Dasatinib; first compound 0.1 µM
  relative viability: 0.701
Obatoclax + Dasatinib; first compound 0.3162 µM
  relative viability: 0.745
Obatoclax + Dasatinib; first compound 1 µM
  relative viability: 0.513

## SK-LU-1
[1]; first compound 0.08 µM
  relative viability: 1
[1]; first compound 0.253 µM
  relative viability: 0.943
[1]; first compound 0.8 µM
  relative viability: 0.933
[1]; first compound 2.53 µM
  relative viability: 0.372
[1]; first compound 8 µM
  relative viability: 0.127
[2]; first compound 0.08 µM
  relative viability: 0.347
[2]; first compound 0.253 µM
  relative viability: 0.313
[2]; first compound 0.8 µM
  relative viability: 0.304
[2]; first compound 2.53 µM
  relative viability: 0.156
[2]; first compound 8 µM
  relative viability: 0.0914
Bortezomib + Pemetrexed; first compound 0.0002 µM
  relative viability: 0.911
Bortezomib + Pemetrexed; first compound 0.000632 µM
  relative viability: 0.984
Bortezomib + Pemetrexed; first compound 0.002 µM
  relative viability: 0.704
Bortezomib + Pemetrexed; first compound 0.006325 µM
  relative viability: 0.188
Bortezomib + Pemetrexed; first compound 0.02 µM
  relative viability: 0.161
Obatoclax + Dasatinib; first compound 0.01 µM
  relative viability: 0.184
Obatoclax + Dasatinib; first compound 0.03162 µM
  relative viability: 0.19
Obatoclax + Dasatinib; first compound 0.1 µM
  relative viability: 0.141
Obatoclax + Dasatinib; first compound 0.3162 µM
  relative viability: 0.157
Obatoclax + Dasatinib; first compound 1 µM
  relative viability: 0.141

## SK-MES-1
[1]; first compound 0.08 µM
  relative viability: 0.908
[1]; first compound 0.253 µM
  relative viability: 0.995
[1]; first compound 0.8 µM
  relative viability: 0.89
[1]; first compound 2.53 µM
  relative viability: 0.213
[1]; first compound 8 µM
  relative viability: 0.162
[2]; first compound 0.08 µM
  relative viability: 0.881
[2]; first compound 0.253 µM
  relative viability: 0.912
[2]; first compound 0.8 µM
  relative viability: 0.656
[2]; first compound 2.53 µM
  relative viability: 0.177
[2]; first compound 8 µM
  relative viability: 0.13
Bortezomib + Pemetrexed; first compound 0.0002 µM
  relative viability: 0.956
Bortezomib + Pemetrexed; first compound 0.000632 µM
  relative viability: 1.02
Bortezomib + Pemetrexed; first compound 0.002 µM
  relative viability: 0.915
Bortezomib + Pemetrexed; first compound 0.006325 µM
  relative viability: 0.211
Bortezomib + Pemetrexed; first compound 0.02 µM
  relative viability: 0.167
Obatoclax + Dasatinib; first compound 0.01 µM
  relative viability: 0.356
Obatoclax + Dasatinib; first compound 0.03162 µM
  relative viability: 0.48
Obatoclax + Dasatinib; first compound 0.1 µM
  relative viability: 0.394
Obatoclax + Dasatinib; first compound 0.3162 µM
  relative viability: 0.362
Obatoclax + Dasatinib; first compound 1 µM
  relative viability: 0.267

## SW 900
[1]; first compound 0.08 µM
  relative viability: 0.469
[1]; first compound 0.253 µM
  relative viability: 0.491
[1]; first compound 0.8 µM
  relative viability: 0.49
[1]; first compound 2.53 µM
  relative viability: 0.407
[1]; first compound 8 µM
  relative viability: 0.102
[2]; first compound 0.08 µM
  relative viability: 0.594
[2]; first compound 0.253 µM
  relative viability: 0.667
[2]; first compound 0.8 µM
  relative viability: 0.559
[2]; first compound 2.53 µM
  relative viability: 0.326
[2]; first compound 8 µM
  relative viability: 0.174
Bortezomib + Pemetrexed; first compound 0.0002 µM
  relative viability: 0.476
Bortezomib + Pemetrexed; first compound 0.000632 µM
  relative viability: 0.485
Bortezomib + Pemetrexed; first compound 0.002 µM
  relative viability: 0.224
Bortezomib + Pemetrexed; first compound 0.006325 µM
  relative viability: 0.169
Bortezomib + Pemetrexed; first compound 0.02 µM
  relative viability: 0.152
Obatoclax + Dasatinib; first compound 0.01 µM
  relative viability: 0.637
Obatoclax + Dasatinib; first compound 0.03162 µM
  relative viability: 0.627
Obatoclax + Dasatinib; first compound 0.1 µM
  relative viability: 0.543
Obatoclax + Dasatinib; first compound 0.3162 µM
  relative viability: 0.206
Obatoclax + Dasatinib; first compound 1 µM
  relative viability: 0.153

## SW 1573
[1]; first compound 0.08 µM
  relative viability: 0.802
[1]; first compound 0.253 µM
  relative viability: 0.852
[1]; first compound 0.8 µM
  relative viability: 0.735
[1]; first compound 2.53 µM
  relative viability: 0.126
[1]; first compound 8 µM
  relative viability: 0.0679
[2]; first compound 0.08 µM
  relative viability: 0.213
[2]; first compound 0.253 µM
  relative viability: 0.162
[2]; first compound 0.8 µM
  relative viability: 0.162
[2]; first compound 2.53 µM
  relative viability: 0.133
[2]; first compound 8 µM
  relative viability: 0.0849
Bortezomib + Pemetrexed; first compound 0.0002 µM
  relative viability: 0.844
Bortezomib + Pemetrexed; first compound 0.000632 µM
  relative viability: 0.993
Bortezomib + Pemetrexed; first compound 0.002 µM
  relative viability: 0.76
Bortezomib + Pemetrexed; first compound 0.006325 µM
  relative viability: 0.0663
Bortezomib + Pemetrexed; first compound 0.02 µM
  relative viability: 0.0512
Obatoclax + Dasatinib; first compound 0.01 µM
  relative viability: 0.413
Obatoclax + Dasatinib; first compound 0.03162 µM
  relative viability: 0.454
Obatoclax + Dasatinib; first compound 0.1 µM
  relative viability: 0.53
Obatoclax + Dasatinib; first compound 0.3162 µM
  relative viability: 0.134
Obatoclax + Dasatinib; first compound 1 µM
  relative viability: 0.136

## UMC-11
[1]; first compound 0.08 µM
  relative viability: 0.74
[1]; first compound 0.253 µM
  relative viability: 0.705
[1]; first compound 0.8 µM
  relative viability: 0.481
[1]; first compound 2.53 µM
  relative viability: 0.148
[1]; first compound 8 µM
  relative viability: 0.122
[2]; first compound 0.08 µM
  relative viability: 0.191
[2]; first compound 0.253 µM
  relative viability: 0.212
[2]; first compound 0.8 µM
  relative viability: 0.206
[2]; first compound 2.53 µM
  relative viability: 0.183
[2]; first compound 8 µM
  relative viability: 0.162
Bortezomib + Pemetrexed; first compound 0.0002 µM
  relative viability: 0.694
Bortezomib + Pemetrexed; first compound 0.000632 µM
  relative viability: 0.875
Bortezomib + Pemetrexed; first compound 0.002 µM
  relative viability: 0.745
Bortezomib + Pemetrexed; first compound 0.006325 µM
  relative viability: 0.39
Bortezomib + Pemetrexed; first compound 0.02 µM
  relative viability: 0.17
Obatoclax + Dasatinib; first compound 0.01 µM
  relative viability: 0.443
Obatoclax + Dasatinib; first compound 0.03162 µM
  relative viability: 0.529
Obatoclax + Dasatinib; first compound 0.1 µM
  relative viability: 0.468
Obatoclax + Dasatinib; first compound 0.3162 µM
  relative viability: 0.372
Obatoclax + Dasatinib; first compound 1 µM
  relative viability: 0.278
